The results in this text go back to patent US10420772B2, “Animal and human anti-trypanosomonal and anti-leishmania agents” (Celgene Corporation, priority 2016, dated 2019).

Like-named read-outs stand apart in the source and are kept apart here.

Common to all, as to assay type: cell-based
The test system of assay [1] is STIB 806 K T. evansi (drug sensitive) strain. Kind of assay: In vitro Alamar Blue 72 hrs drug sensitivity assay for T. evansi. To be noted: read-out: T. evansi Act. On the procedure:
In vitro Alamar Blue 72 hrs drug sensitivity assay for T. evansi. Compounds were tested in vitro for chemotherapeutic efficacy against the STIB 806 K T. evansi (drug sensitive) strain, using an Alamar Blue assay. Test compounds were prepared as 10 mg/mL DMSO stocks for each assay run. Compounds were assayed in at least three separate, independent test runs and an 11-point dilution curve was used to determine the IC50 values. Bloodstream form trypanosomes were incubated with test compounds for 69 hrs at 37° C. in a humidified atmosphere containing 5% CO2, supported in HMI media containing 15% horse serum. Thereafter, 10 μL of Resazurin dye (12.5 mg in 100 mL of phosphate buffered saline, Sigma-Aldrich, Buchs, Switzerland) were added for an additional 3 hrs. Plates were then read using a fluorescent plate reader (Spectramax, Gemini XS, Bucher Biotec, Basel, Switzerland) using an excitation wavelength of 536 nm and an emission wavelength of 588 nm. Data points were averaged to generate sigmoidal dose-response curves and IC50 values were determined using Softmax Pro 5.2 software.
In general terms: Resazurin is reduced to fluorescent resorufin, in cell work by metabolically active cells.

Assay [2] has as its system IL3000 T. congolense (drug sensitive) strain. Kind of assay: In vitro Alamar Blue 72 hrs drug sensitivity assay for T. congolense. As to conditions: Trypanosoma congolense, IL3000 T. congolense bloodstream form, read-out: T. congo Act. On the procedure: In Vitro Alamar Blue 72 Hrs Drug Sensitivity Assay for T. Congolense. Compounds were tested in vitro for chemotherapeutic efficacy against the IL3000 T. congolense (drug sensitive) strain using an Alamar Blue assay. Test compounds were prepared as 10 mg/mL DMSO stocks for each assay run. Compounds were assayed in at least three separate, independent test runs and an 11-point dilution curve was used to determine the IC50 values. Bloodstream form trypanosomes were supported in HMI media containing 20% bovine serum and were incubated with test compounds for 69 hrs at 34° C. in a humidified atmosphere containing 5% CO2. Thereafter, 10 μL of Resazurin dye (12.5 mg in 100 mL of phosphate buffered saline, Sigma-Aldrich, Buchs, Switzerland) were added for an additional 3 hrs. Plates were then read using a fluorescent plate reader (Spectramax, Gemini XS, Bucher Biotec, Basel, Switzerland) using an excitation wavelength of 536 nm and an emission wavelength of 588 nm. Data points were averaged to generate sigmoidal dose-response curves and IC50 values were determined using Softmax Pro 5.2 software.

Assay [3] has as its system STIB 719/ILRAD 560 T. vivax (drug sensitive) strain. Kind of assay: Ex vivo Alamar Blue 48 hrs drug sensitivity assay for T. vivax. To be noted: Trypanosoma vivax, read-out: T. vivax Act. The procedure:
Ex vivo Alamar Blue48 hrs drug sensitivity assay for T. vivax. Compounds were tested ex vivo for chemotherapeutic efficacy against the STIB 719/ILRAD 560 T. vivax (drug sensitive) strain, using an Alamar Blue assay. Test compounds were prepared as 10 mg/mL DMSO stocks for each assay run. Compounds were assayed in at least three separate, independent test runs and an 11-point dilution curve was used to determine the IC50 values. Bloodstream form trypanosomes were propagated and harvested from a highly parasitaemic mouse (via cardiac puncture) and were incubated with test compounds for 45 hrs at 37° C. in a humidified atmosphere containing 5% CO2, supported in HMI media containing 20% bovine serum. Thereafter, 10 μL of Resazurin dye (12.5 mg in 100 mL of phosphate buffered saline, Sigma-Aldrich, Buchs, Switzerland) were added for an additional 3 hrs. Plates were then read using a fluorescent plate reader (Spectramax, Gemini XS, Bucher Biotec, Basel, Switzerland) using an excitation wavelength of 536 nm and an emission wavelength of 588 nm. Data points were averaged to generate sigmoidal dose-response curves and IC50 values were determined using Softmax Pro 5.2 software.

Where [4] appears, read: STIB 806 K T. evansi bloodstream form, Alamar Blue, 72 hrs.
Where [5] appears, read: STIB719, STIB 719/ILRAD 560 T. vivax bloodstream form, ex vivo, Alamar Blue, 48 hrs.

Consider `CC1(Nc2ncc3nc(Nc4ccnc(C(F)(F)F)c4)n([C@H]4CC[C@@H](CN)CC4)c3n2)CCOCC1` [A-34, 9-((1s,4s)-4-(aminomethyl)cyclohexyl)-N2-(4-methyltetrahydro-2H-pyran-4-yl)-N8-(2-(trifluoromethyl)pyridin-4-yl)-9H-purine-2,8-diamine], for which the IC50 in assay [1] (setting [4]), in assay [2] and in assay [3] (setting [5]) was less than 150 nM in each case.

With `CN(C)C[C@H]1CC[C@@H](n2c(Nc3cccc(C(F)(F)F)c3)nc3cnc(NC4(C)CCOCC4)nc32)CC1` [A-56, 9-((1s,4s)-4-((dimethylamino)methyl)cyclohexyl)-N2-(4-methyltetrahydro-2H-pyran-4-yl)-N8-(3-(trifluoromethyl)phenyl)-9H-purine-2,8-diamine], the IC50 in assay [1] (setting [4]) and in assay [2] was less than 150 nM each time.

For the molecule `CC1(Nc2ncc3nc(Nc4cc(Cl)ccc4F)n([C@H]4CC[C@@H](CN)CC4)c3n2)CCOCC1` [A-50, 9-((1s,4s)-4-(aminomethyl)cyclohexyl)-N8-(5-chloro-2-fluorophenyl)-N2-(4-methyltetrahydro-2H-pyran-4-yl)-9H-purine-2,8-diamine], the IC50 in assay [1] (setting [4]) and in assay [2] was less than 150 nM each time.

Consider `CC1(Nc2ncc3nc(Nc4ccc(OC(F)(F)F)cc4)n([C@H]4CC[C@@H](CN)CC4)c3n2)CCOCC1` [A-38, 9-((1s,4s)-4-(aminomethyl)cyclohexyl)-N2-(4-methyltetrahydro-2H-pyran-4-yl)-N8-(4-(trifluoromethoxy)phenyl)-9H-purine-2,8-diamine], for which the IC50 was 150 to 350 nM in assay [1] (setting [4]), less than 150 nM in assay [2] and less than 150 nM in assay [3] (setting [5]).

Take `CC1(Nc2ncc3nc(Nc4cc(Cl)cc(Cl)c4)n([C@H]4CC[C@@H](CN)CC4)c3n2)CCOCC1` [A-43, 9-((1s,4s)-4-(aminomethyl)cyclohexyl)-N8-(3,5-dichlorophenyl)-N2-(4-methyltetrahydro-2H-pyran-4-yl)-9H-purine-2,8-diamine]: the IC50 in assay [1] (setting [4]), in assay [2] and in assay [3] (setting [5]) was less than 150 nM in each case.

As to `CCC(C)(C)Nc1ncc2nc(Nc3cccc(C(F)(F)F)c3)n([C@H]3CC[C@@H](CN)CC3)c2n1` [A-13, 9-((1s,4s)-4-(aminomethyl)cyclohexyl)-N2-tert-pentyl-N8-(3-(trifluoromethyl)phenyl)-9H-purine-2,8-diamine], the IC50 in assay [1] (setting [4]), in assay [2] and in assay [3] (setting [5]) was less than 150 nM in each case.

On to `CC1(Nc2ncc3nc(Nc4cccc(Cl)c4)n(C4CCC(CN)CC4)c3n2)CCOCC1` (stereo not shown) [A-1, 9-((1s,4s)-4-(aminomethyl)cyclohexyl)-N8-(3-chlorophenyl)-N2-(4-methyltetrahydro-2H-pyran-4-yl)-9H-purine-2,8-diamine], for which the IC50 in assay [1] (setting [4]), in assay [2] and in assay [3] (setting [5]) was less than 150 nM throughout.

Turning to `CC1(Nc2ncc3nc(Nc4cc(F)cc(Cl)c4)n([C@H]4CC[C@@H](CN)CC4)c3n2)CCOCC1` [A-47, 9-((1s,4s)-4-(aminomethyl)cyclohexyl)-N8-(3-chloro-5-fluorophenyl)-N2-(4-methyltetrahydro-2H-pyran-4-yl)-9H-purine-2,8-diamine], the IC50 in assay [1] (setting [4]), in assay [2] and in assay [3] (setting [5]) was less than 150 nM in each case.

As for `CC1(Nc2ncc3nc(Nc4cccc(Cl)c4F)n([C@H]4CC[C@@H](CN)CC4)c3n2)CCOCC1` [A-49, 9-((1s,4s)-4-(aminomethyl)cyclohexyl)-N8-(3-chloro-2-fluorophenyl)-N2-(4-methyltetrahydro-2H-pyran-4-yl)-9H-purine-2,8-diamine], the IC50 in assay [1] (setting [4]), in assay [2] and in assay [3] (setting [5]) was less than 150 nM in each case.

As to `CC1(Nc2ncc3nc(Nc4cccc(Cl)c4)n(C4CCC(CN)CC4)c3n2)CCCC1` (stereo not shown) [A-4, 9-((1s,4s)-4-(aminomethyl)cyclohexyl)-N8-(3-chlorophenyl)-N2-(1-methylcyclopentyl)-9H-purine-2,8-diamine], the IC50 in assay [1] (72 h) is less than 150 nM; in assay [2], less than 150 nM; in assay [3] (STIB719, 48 h) it was less than 150 nM.

`CC1(Nc2ncc3nc(Nc4cc(F)cc(F)c4)n([C@H]4CC[C@@H](CN)CC4)c3n2)CCOCC1` [A-44, 9-((1s,4s)-4-(aminomethyl)cyclohexyl)-N8-(3,5-difluorophenyl)-N2-(4-methyltetrahydro-2H-pyran-4-yl)-9H-purine-2,8-diamine]: the IC50 in assay [1] (setting [4]), in assay [2] and in assay [3] (setting [5]) was less than 150 nM in each case.

As for `NC1CCC(n2c(Nc3cccc(Cl)c3)nc3cnc(NC4CC4)nc32)CC1` (stereo not shown) [B-2, 9-((1r,4r)-4-aminocyclohexyl)-N8-(3-chlorophenyl)-N2-cyclopropyl-9H-purine-2,8-diamine], the IC50 in assay [2] is 350 to 500 nM; in assay [3] (setting [5]) it was less than 150 nM.

Regarding `NCC1CCC(n2c(Nc3cc(Cl)cc(C(F)(F)F)c3)nc3cnc(NC4CCOCC4)nc32)CC1` (stereo not shown) [B-12, 9-((1s,4s)-4-(aminomethyl)cyclohexyl)-N8-(3-chloro-5-(trifluoromethyl)phenyl)-N2-(tetrahydro-2H-pyran-4-yl)-9H-purine-2,8-diamine], the IC50 in assay [2] and in assay [3] (setting [5]) was 350 to 500 nM throughout.

For the molecule `CCC(C)(C)Nc1ncc2nc(Nc3ccc(C(F)(F)F)cc3)n([C@H]3CC[C@@H](CN)CC3)c2n1` [A-23, 9-((1s,4s)-4-(aminomethyl)cyclohexyl)-N2-tert-pentyl-N8-(4-(trifluoromethyl)phenyl)-9H-purine-2,8-diamine], the IC50 in assay [2] and in assay [3] (setting [5]) was 350 to 500 nM each time.

For the molecule `NCC1CCC(n2c(Nc3cc(C(F)(F)F)ccc3F)nc3cnc(NC4CCOCC4)nc32)CC1` (stereo not shown) [B-16, 9-((1s,4s)-4-(aminomethyl)cyclohexyl)-N8-(2-fluoro-5-(trifluoromethyl)phenyl)-N2-(tetrahydro-2H-pyran-4-yl)-9H-purine-2,8-diamine], the IC50 in assay [2] is 350 to 500 nM; in assay [3] (setting [5]) it was less than 150 nM.

In the case of `CC(C)(CO)Nc1ncc2nc(Nc3cccc(Cl)c3)n(C3CCC(CN)CC3)c2n1` (stereo not shown) [A-54, 2-(9-((1s,4s)-4-(aminomethyl)cyclohexyl)-8-(3-chlorophenylamino)-9H-purin-2-ylamino)-2-methylpropan-1-ol], the IC50 is 150 to 350 nM in assay [2] and less than 150 nM in assay [3] (setting [5]).

As for `CC1(Nc2ncc3nc(Nc4cccc(Cl)c4)n(C4CCC(O)CC4)c3n2)CCCC1` (stereo not shown) [A-10, (1s,4s)-4-(8-(3-chlorophenylamino)-2-(1-methylcyclopentylamino)-9H-purin-9-yl)cyclohexanol], the IC50 in assay [2] and in assay [3] (setting [5]) was 350 to 500 nM in each case.

As to `CNC[C@H]1CC[C@@H](n2c(Nc3cccc(C(F)(F)F)c3)nc3cnc(NC4(C)CCOCC4)nc32)CC1` [A-58, 9-((1s,4s)-4-((methylamino)methyl)cyclohexyl)-N2-(4-methyltetrahydro-2H-pyran-4-yl)-N8-(3-(trifluoromethyl)phenyl)-9H-purine-2,8-diamine], the IC50 in assay [2] and in assay [3] (setting [5]) was less than 150 nM throughout.

Consider `CC1(Nc2ncc3nc(Nc4cccc(Cl)c4)n(C4CC(N)C4)c3n2)CCOCC1` (stereo not shown) [A-35, 9-(3-aminocyclobutyl)-N8-(3-chlorophenyl)-N2-(4-methyltetrahydro-2H-pyran-4-yl)-9H-purine-2,8-diamine], for which the IC50 in assay [2] and in assay [3] (setting [5]) was less than 150 nM throughout.

For the molecule `CC(C)(C)Nc1ncc2nc(Nc3cc(Cl)cc(Cl)c3)n([C@H]3CC[C@@H](CN)CC3)c2n1` [A-48, 9-((1s,4s)-4-(aminomethyl)cyclohexyl)-N2-tert-butyl-N8-(3,5-dichlorophenyl)-9H-purine-2,8-diamine], the IC50 in assay [2] was in the range of 150 to 350 nM; in assay [3] (setting [5]) it was 350 to 500 nM.
